These results are taken from ChEMBL document CHEMBL1140961, “Synthesis and biological activity of some new benzoxazoles” (2008).

Each structure is given as a SMILES string. ≈ marks a conversion by molar mass, not a printed value.

Common to all, as to assay type: functional
Assay [1] has as its system Candida albicans. The assay is described as follows: Antimicrobial activity against Candida albicans isolate after 24 to 48 hrs after 24 hrs by disk diffusion method.
Assay [2] concerns Candida albicans. The assay is described as follows: Antimicrobial activity against Candida albicans ATCC 10231 after 24 to 48 hrs after 24 hrs by disk diffusion method.
In assay [3] the test system is Klebsiella pneumoniae. The assay is described as follows: Antimicrobial activity against Klebsiella pneumoniae after 24 hrs by disk diffusion method. (In general: In agar diffusion tests the substance spreads into inoculated agar from a disc or well.)
For assay [4], the system named is Escherichia coli. The assay is described as follows: Antimicrobial activity against Escherichia coli ATCC 25922 after 24 hrs by disk diffusion method. As to conditions: ATCC 25922, 24 h.
Assay [5] concerns Staphylococcus aureus. The assay is described as follows: Antimicrobial activity against Staphylococcus aureus isolate after 24 hrs by disk diffusion method.
Assay [6] has as its system Escherichia coli. The assay is described as follows: Antimicrobial activity against Escherichia coli isolate after 24 hrs by disk diffusion method.
Assay [7] deals with Bacillus subtilis. The assay is described as follows: Antimicrobial activity against Bacillus subtilis ATCC 6633 after 24 hrs by disk diffusion method. As to conditions: ATCC 6633, 24 h.
Assay [8] relates to Bacillus subtilis. The assay is described as follows: Antimicrobial activity against Bacillus subtilis isolate after 24 hrs by disk diffusion method.
Assay [9] concerns Klebsiella pneumoniae. The assay is described as follows: Antimicrobial activity against Klebsiella pneumoniae RSHM 574 after 24 hrs by disk diffusion method.
Another assay deals with Pseudomonas aeruginosa. The assay is described as follows: Antimicrobial activity against Pseudomonas aeruginosa ATCC […] after 24 hrs by disk diffusion method. As to conditions: ATCC 25853, 24 h.
Assay [10] deals with Staphylococcus aureus. The assay is described as follows: Antimicrobial activity against Staphylococcus aureus ATCC 25923 after 24 hrs by disk diffusion method. As to conditions: ATCC 25923, 24 h.

The term MIC denotes the smallest concentration in the dilution series that meets the test's criterion for growth inhibition. For the compound `OC(Cn1cncn1)(Cn1cncn1)c1ccc(F)cc1F` [FLUCONAZOLE], the values for the MIC against Candida albicans [1] and in the assay on Candida albicans [2] were 64 µg/mL (≈ 209 µM) and 1 µg/mL (≈ 3.27 µM), respectively.

For `CCS(=O)(=O)c1ccc2oc(Cc3ccc(C)cc3)nc2c1`, the MIC in the assay on Klebsiella pneumoniae [3] stood at 125 µg/mL (≈ 396 µM); in the assay on Candida albicans [1] it was 62.5 µg/mL (≈ 198 µM); in the assay on Escherichia coli [4], 62.5 µg/mL (≈ 198 µM); against Staphylococcus aureus [5], 125 µg/mL (≈ 396 µM); against Escherichia coli [6] it was 125 µg/mL (≈ 396 µM); against Bacillus subtilis [7] it was 31.2 µg/mL (≈ 99.1 µM). Moreover, the MIC against Bacillus subtilis [8] came out at 31.2 µg/mL (≈ 99.1 µM); with Klebsiella pneumoniae [9] it was 62.5 µg/mL (≈ 198 µM); against Candida albicans [2], 62.5 µg/mL (≈ 198 µM); in the assay with Pseudomonas aeruginosa, 62.5 µg/mL (≈ 198 µM); with Staphylococcus aureus [10], 125 µg/mL (≈ 396 µM).

Regarding `CCS(=O)(=O)c1ccc2oc(Cc3ccc(Cl)cc3)nc2c1`, the MIC worked out at 125 µg/mL (≈ 372 µM) against Klebsiella pneumoniae [3]; 62.5 µg/mL (≈ 186 µM) against Candida albicans [1]; 62.5 µg/mL (≈ 186 µM) in the assay with Escherichia coli [4]; 125 µg/mL (≈ 372 µM) in the assay with Staphylococcus aureus [5]; 125 µg/mL (≈ 372 µM) in the assay on Escherichia coli [6]; 31.2 µg/mL (≈ 93.1 µM) in the assay on Bacillus subtilis [7]. Also, the MIC against Bacillus subtilis [8] was 15.6 µg/mL (≈ 46.5 µM); against Klebsiella pneumoniae [9], 62.5 µg/mL (≈ 186 µM); against Candida albicans [2] it was 31.2 µg/mL (≈ 93.1 µM); in the assay with Pseudomonas aeruginosa, 62.5 µg/mL (≈ 186 µM); with Staphylococcus aureus [10], 125 µg/mL (≈ 372 µM).

Consider `CCS(=O)(=O)c1ccc2oc(-c3ccc(Br)cc3)nc2c1`, for which the MIC against Klebsiella pneumoniae [3] is 125 µg/mL (≈ 341 µM); in the assay with Candida albicans [1], 31.2 µg/mL (≈ 85.3 µM); in the assay with Escherichia coli [4], 62.5 µg/mL (≈ 171 µM); in the assay on Staphylococcus aureus [5], 125 µg/mL (≈ 341 µM); in the assay on Escherichia coli [6], 62.5 µg/mL (≈ 171 µM); against Bacillus subtilis [7] it was 15.6 µg/mL (≈ 42.7 µM). Further, the MIC against Bacillus subtilis [8] is 31.2 µg/mL (≈ 85.3 µM); against Klebsiella pneumoniae [9], 62.5 µg/mL (≈ 171 µM); in the assay on Candida albicans [2] it was 125 µg/mL (≈ 341 µM); in the assay on Pseudomonas aeruginosa, 62.5 µg/mL (≈ 171 µM); with Staphylococcus aureus [10] it was 125 µg/mL (≈ 341 µM).

Take `CC1COc2c(N3CCN(C)CC3)c(F)cc3c(=O)c(C(=O)O)cn1c23` (stereo not given) [OFLOXACIN]: the MIC in the assay with Klebsiella pneumoniae [3] worked out at 64 µg/mL (≈ 177 µM); against Escherichia coli [4] it was 0.125 µg/mL (≈ 0.346 µM); against Staphylococcus aureus [5] it was 2 µg/mL (≈ 5.53 µM); against Escherichia coli [6] it was 32 µg/mL (≈ 88.6 µM); in the assay on Bacillus subtilis [7], 0.125 µg/mL (≈ 0.346 µM); against Bacillus subtilis [8], 32 µg/mL (≈ 88.6 µM). Moreover, the MIC came to 0.25 µg/mL (≈ 0.692 µM) with Klebsiella pneumoniae [9], 8 µg/mL (≈ 22.1 µM) in the assay with Pseudomonas aeruginosa and 0.25 µg/mL (≈ 0.692 µM) against Staphylococcus aureus [10].

Regarding `CCS(=O)(=O)c1ccc2oc(-c3ccccc3)nc2c1`, the MIC with Klebsiella pneumoniae [3] was found to be 125 µg/mL (≈ 435 µM); in the assay on Candida albicans [1] it was 31.2 µg/mL (≈ 109 µM); against Escherichia coli [4], 62.5 µg/mL (≈ 218 µM); against Staphylococcus aureus [5], 125 µg/mL (≈ 435 µM); in the assay on Escherichia coli [6] it was 62.5 µg/mL (≈ 218 µM); in the assay with Bacillus subtilis [7] it was 62.5 µg/mL (≈ 218 µM). Further, the MIC with Bacillus subtilis [8] was determined as 31.2 µg/mL (≈ 109 µM); in the assay on Klebsiella pneumoniae [9] it was 125 µg/mL (≈ 435 µM); in the assay on Candida albicans [2], 125 µg/mL (≈ 435 µM); against Pseudomonas aeruginosa, 62.5 µg/mL (≈ 218 µM); against Staphylococcus aureus [10], 125 µg/mL (≈ 435 µM).

`CCS(=O)(=O)c1ccc2oc(Cc3ccccc3Cl)nc2c1`: the MIC against Klebsiella pneumoniae [3] came out at 125 µg/mL (≈ 372 µM); in the assay with Candida albicans [1], 62.5 µg/mL (≈ 186 µM); in the assay with Escherichia coli [4] it was 62.5 µg/mL (≈ 186 µM); in the assay with Staphylococcus aureus [5], 125 µg/mL (≈ 372 µM); with Escherichia coli [6], 125 µg/mL (≈ 372 µM); with Bacillus subtilis [7], 62.5 µg/mL (≈ 186 µM). The MIC against Bacillus subtilis [8] turned out to be 31.2 µg/mL (≈ 93.1 µM); against Klebsiella pneumoniae [9], 31.2 µg/mL (≈ 93.1 µM); against Candida albicans [2], 62.5 µg/mL (≈ 186 µM); against Pseudomonas aeruginosa, 62.5 µg/mL (≈ 186 µM); with Staphylococcus aureus [10], 125 µg/mL (≈ 372 µM).

Turning to `CCS(=O)(=O)c1ccc2oc(-c3ccc(F)cc3)nc2c1`, the minimum inhibitory concentration (MIC) against Klebsiella pneumoniae [3] is 125 µg/mL (≈ 409 µM); with Candida albicans [1] it was 31.2 µg/mL (≈ 102 µM); in the assay with Escherichia coli [4] it was 62.5 µg/mL (≈ 205 µM); against Staphylococcus aureus [5] it was 125 µg/mL (≈ 409 µM); with Escherichia coli [6] it was 62.5 µg/mL (≈ 205 µM); with Bacillus subtilis [7], 31.2 µg/mL (≈ 102 µM). Moreover, the MIC against Bacillus subtilis [8] was 31.2 µg/mL (≈ 102 µM); against Klebsiella pneumoniae [9], 31.2 µg/mL (≈ 102 µM); against Candida albicans [2], 125 µg/mL (≈ 409 µM); with Pseudomonas aeruginosa, 62.5 µg/mL (≈ 205 µM); with Staphylococcus aureus [10], 125 µg/mL (≈ 409 µM).

Regarding `CCc1ccc(-c2nc3cc(S(=O)(=O)CC)ccc3o2)cc1`, the MIC came out at 125 µg/mL (≈ 396 µM) in the assay on Klebsiella pneumoniae [3]; 15.6 µg/mL (≈ 49.5 µM) against Candida albicans [1]; 62.5 µg/mL (≈ 198 µM) against Escherichia coli [4]; 125 µg/mL (≈ 396 µM) in the assay on Staphylococcus aureus [5]; 62.5 µg/mL (≈ 198 µM) against Escherichia coli [6]; 31.2 µg/mL (≈ 99.1 µM) with Bacillus subtilis [7]. Further, the MIC against Bacillus subtilis [8] was determined as 31.2 µg/mL (≈ 99.1 µM); in the assay on Klebsiella pneumoniae [9], 62.5 µg/mL (≈ 198 µM); in the assay with Candida albicans [2], 125 µg/mL (≈ 396 µM); against Pseudomonas aeruginosa, 62.5 µg/mL (≈ 198 µM); against Staphylococcus aureus [10], 125 µg/mL (≈ 396 µM).

Consider `CCS(=O)(=O)c1ccc2oc(-c3ccc(C(C)(C)C)cc3)nc2c1`, for which the MIC was 250 µg/mL (≈ 728 µM) in the assay on Klebsiella pneumoniae [3]; 31.2 µg/mL (≈ 91 µM) against Candida albicans [1]; 62.5 µg/mL (≈ 182 µM) with Escherichia coli [4]; 125 µg/mL (≈ 364 µM) against Staphylococcus aureus [5]; 62.5 µg/mL (≈ 182 µM) in the assay on Escherichia coli [6]; 7.81 µg/mL (≈ 22.7 µM) in the assay with Bacillus subtilis [7]. The MIC against Bacillus subtilis [8] is 15.6 µg/mL (≈ 45.5 µM); in the assay on Klebsiella pneumoniae [9], 62.5 µg/mL (≈ 182 µM); with Candida albicans [2], 125 µg/mL (≈ 364 µM); against Pseudomonas aeruginosa it was 62.5 µg/mL (≈ 182 µM); with Staphylococcus aureus [10] it was 125 µg/mL (≈ 364 µM).

Regarding `CCS(=O)(=O)c1ccc2oc(-c3ccccc3Br)nc2c1`, the minimum inhibitory concentration (MIC) was found to be 125 µg/mL (≈ 341 µM) against Klebsiella pneumoniae [3]; 62.5 µg/mL (≈ 171 µM) with Candida albicans [1]; 62.5 µg/mL (≈ 171 µM) against Escherichia coli [4]; 125 µg/mL (≈ 341 µM) in the assay with Staphylococcus aureus [5]; 250 µg/mL (≈ 683 µM) against Escherichia coli [6]; 15.6 µg/mL (≈ 42.7 µM) in the assay on Bacillus subtilis [7]. In addition, the MIC was 31.2 µg/mL (≈ 85.3 µM) with Bacillus subtilis [8]; 31.2 µg/mL (≈ 85.3 µM) in the assay with Klebsiella pneumoniae [9]; 62.5 µg/mL (≈ 171 µM) in the assay with Candida albicans [2]; 62.5 µg/mL (≈ 171 µM) with Pseudomonas aeruginosa; 125 µg/mL (≈ 341 µM) against Staphylococcus aureus [10].
